# Test results reported in ChEMBL document CHEMBL5241054, “Effective anti-aromatase therapy to battle against estrogen-mediated breast cancer: Comparative SAR/QSAR assessment on steroidal aromatase inhibitors” (Eur J Med Chem, 2020).
# pIC50: −log10 of the molar value.
# Target: T1, Aromatase (Homo sapiens, UniProt P11511)
# T1 sequence (P11511 whole entry): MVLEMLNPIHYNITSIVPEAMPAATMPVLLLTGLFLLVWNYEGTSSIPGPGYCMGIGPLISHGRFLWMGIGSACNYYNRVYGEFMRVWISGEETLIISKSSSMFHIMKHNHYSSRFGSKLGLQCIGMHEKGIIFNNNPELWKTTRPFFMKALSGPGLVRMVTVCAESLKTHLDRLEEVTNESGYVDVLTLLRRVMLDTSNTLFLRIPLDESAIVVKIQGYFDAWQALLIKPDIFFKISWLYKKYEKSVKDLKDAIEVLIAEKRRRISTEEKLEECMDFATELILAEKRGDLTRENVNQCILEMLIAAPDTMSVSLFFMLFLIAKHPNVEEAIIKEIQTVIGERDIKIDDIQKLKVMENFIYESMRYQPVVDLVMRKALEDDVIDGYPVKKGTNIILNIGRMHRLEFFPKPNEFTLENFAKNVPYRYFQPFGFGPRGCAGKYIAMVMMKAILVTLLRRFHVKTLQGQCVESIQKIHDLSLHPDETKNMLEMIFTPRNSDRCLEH
compound,measurement,value
CC(=O)O[C@@H]1C[C@@H]2[C@H](CC[C@]3(C)C(=O)CC[C@@H]23)[C@@]2(C)C=CC(=O)C=C12,pIC50,5.30
C[C@]12C=CC(=O)C=C1CC[C@@H]1[C@@H]2CC[C@]2(C)C3=NN[C@H](c4ccccc4)[C@H]3C[C@@H]12,pIC50,5.52
CCCCC(=O)O[C@@H]1C[C@@H]2[C@H](CC[C@]3(C)C(=O)CC[C@@H]23)[C@@]2(C)CCC(=O)C=C12,pIC50,5.82
C/C=C1\CC[C@@]2(C)[C@@H](CC[C@@H]3[C@@H]2CC[C@]2(C)C4=NN(c5ccccc5)[C@H](c5ccccc5)[C@H]4C[C@@H]32)C1,pIC50,5.48
COc1ccc(/C=C2/C[C@H]3[C@@H]4CC[C@H]5C[C@@H](O)CC[C@]5(C)[C@H]4CC[C@]3(C)C2=O)cc1,pIC50,5.15
COc1ccc([C@@H]2[C@H]3C[C@H]4[C@@H]5CC[C@H]6C[C@@H](O)CC[C@]6(C)[C@H]5CC[C@]4(C)C3=NN2c2ccccc2)cc1,pIC50,5.23
COc1ccc([C@@H]2[C@H]3C[C@H]4[C@@H]5CC[C@H]6C[C@@H](OC(=O)C(F)(F)F)CC[C@]6(C)[C@H]5CC[C@]4(C)C3=NN2C)cc1,pIC50,5.24
CCCCCC(=O)O[C@@H]1C[C@@H]2[C@H](CC[C@]3(C)C(=O)CC[C@@H]23)[C@@]2(C)C=CC(=O)C=C12,pIC50,5.75
CCCCCCCC(=O)O[C@@H]1C[C@@H]2[C@H](CC[C@]3(C)C(=O)CC[C@@H]23)[C@@]2(C)CCC(=O)C=C12,pIC50,5.82
COc1ccc([C@H]2NN=C3[C@@H]2C[C@H]2[C@@H]4CC[C@H]5C[C@@H](O)CC[C@]5(C)[C@H]4CC[C@]32C)cc1,pIC50,5.17
CCO[C@@H]1C[C@@]2(C)C(=CC1=O)CC[C@@H]1[C@@H]2CC[C@]2(C)C(=O)CC[C@@H]12,pIC50,4.93
C[C@]12CCC(=O)C=C1[C@@H](Oc1ccccc1)C[C@@H]1[C@@H]2CC[C@]2(C)C(=O)CC[C@@H]12,pIC50,7.00
CO[C@@H]1C[C@@]2(C)C(=CC1=O)CC[C@@H]1[C@@H]2CC[C@]2(C)C(=O)CC[C@@H]12,pIC50,4.93
CC(=O)O[C@@H]1C[C@@H]2[C@H](CC[C@]3(C)C(=O)CC[C@@H]23)[C@@]2(C)CCC(=O)C=C12,pIC50,4.70
CC(=O)O[C@H]1C[C@@H]2[C@H](CC[C@]3(C)C(=O)CC[C@@H]23)[C@@]2(C)CCC(=O)C=C12,pIC50,5.40
COC1=C[C@@H]2[C@H](CC[C@]3(C)C(=O)CC[C@@H]23)[C@@]2(C)CCC(=O)C=C12,pIC50,6.16
COCOC1=C2CC[C@@H]3[C@H](CC[C@]4(C)C(=O)CC[C@@H]34)[C@@]2(C)CCC1=O,pIC50,5.36
C[C@]12CCC(=O)C(O)=C1CC[C@@H]1C2=CC[C@]2(C)C(=O)CC[C@@H]12,pIC50,6.46
C[C@]12C=CC(=O)C=C1[C@@H](Oc1ccccc1)C[C@@H]1[C@@H]2CC[C@]2(C)C(=O)CC[C@@H]12,pIC50,6.28
CC(=O)N1N=C2[C@H](C[C@H]3[C@@H]4CC[C@H]5CC(=O)CC[C@]5(C)[C@H]4CC[C@]23C)[C@H]1c1ccccc1,pIC50,5.31
CSC1=C2CC[C@@H]3[C@H](CC[C@]4(C)C(=O)CC[C@@H]34)[C@@]2(C)CCC1=O,pIC50,5.36
CCO[C@@H]1C[C@@H]2[C@H](CC[C@]3(C)C(=O)CC[C@@H]23)[C@@]2(C)CCC(=O)C=C12,pIC50,6.30
CCCO[C@@H]1C[C@@H]2[C@H](CC[C@]3(C)C(=O)CC[C@@H]23)[C@@]2(C)CCC(=O)C=C12,pIC50,6.26
C[C@]12CCC(=O)C=C1[C@H](Oc1ccccc1)C[C@@H]1[C@@H]2CC[C@]2(C)C(=O)CC[C@@H]12,pIC50,4.64
C[C@]12CC[C@H](OC(=O)C(F)(F)F)C[C@@H]1CC[C@@H]1[C@@H]2CC[C@]2(C)C(=O)/C(=C\c3ccccc3)C[C@@H]12,pIC50,5.15
